In patent US7696177B2, “Anti-hypercholesterolemic compounds” (Merck Sharp & Dohme Corp., priority 2005, dated 2010):

Test system: cholesterol absorption
Test: Cholesterol Absorption Assay in Mice
Format: in vivo, C57BL/6 male mice
Settings: at the highest dose tested; oral dosing 0.12-10 mg/kg, [3H]-cholesterol counts in liver and plasma 5 h later
Protocol: Compounds of this invention were determined to inhibit cholesterol absorption employing the Cholesterol Absorption Assay in Mice, below. This assay involves comparing a test compound to ezetimibe with respect to their ability to inhibit cholesterol absorption in mice.
Cholesterol Absorption Assay in Mice:
C57BL/6 male mice (n=6/group), aged 10-14 weeks, were dosed orally with 0.2 ml 0.25% methyl cellulose solution with or without test compound or ezetimibe (0.12-10 mg/kg). Thirty minutes later all of the mice were dosed orally with 0.2 ml […]™ containing 2 μCi [^3H]-cholesterol per mouse. Five hours later, the animals were euthanized, and liver and blood were collected. Cholesterol counts in liver and plasma were determined, and percent inhibition of cholesterol absorption was calculated.

O=C1[C@H](CC[C@H](O)c2ccc(F)cc2)[C@@H](c2ccc(O)cc2)N1c1ccc(F)cc1 [ezetimibe]
inhibition of cholesterol absorption: > 90%
